Results published in patent US20210061861A1, “D-PEPTIDIC COMPOUNDS FOR VEGF” (Reflexion Pharmaceuticals, Inc., priority 2019, published 2021).
Where “and” joins values, the source holds several entries; their conditions need not be identical. Equal values may be shown once. Bridges are numbered along the chain shown (N, C = ends). Where no end group is shown, it is not given here. [ ]: non-standard residue; d: D form.

Key:
[1] = biological target: T1, VEGF-A121 binding to VEGFR1-Fc (Homo sapiens, UniProt P15692); test: equilibrium binding VEGF-A121/VEGFR1 blocking ELISA; format: biochemical; details: IC50, blocking VEGF-A binding to VEGFR1-Fc, 150 pM VEGF-A, overnight incubation
T1 construct: purchased Acro Biosystems (VEGF-A121); R&D Systems (VEGFR1-Fc) VE1-H82E7; 3516-FL-050
T1 sequence (P15692 27-147 isoform P15692-9 limits assumed): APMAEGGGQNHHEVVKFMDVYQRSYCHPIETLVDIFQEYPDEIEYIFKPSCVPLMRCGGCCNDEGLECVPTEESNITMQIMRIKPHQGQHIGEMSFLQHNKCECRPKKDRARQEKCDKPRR
Text: Biotinylated human VEGF-A121 (isoform 121) was purchased from Acro Biosystems (cat #VE1-H82E7). VEGFR-1-Fc was purchased from R&D Systems (cat #3516-FL-050).
The following day, coated wells were blocked with Super Block (Rockland) for 2 hr with shaking at room temp.
Data plotted are mean±standard deviation of triplicate measurements. IC50 values were derived from 3-parameter fits using Prism (GraphPad) and the error reported is derived from fits.

[2] = tested on: VEGF-A signaling through VEGFR2; test: VEGFR2 luciferase reporter cell signaling assay (KDR/NFAT-RE HEK293); format: cell-based; details: 150 pM VEGF-A; read-out: IC50, inhibition of VEGFR2 signaling (luciferase)
Method: Here VEGF-A activates VEGFR2 signaling in 293 cells resulting in luciferase expression as a functional readout. Inhibition of VEGF-A signaling in this system results in a loss of luciferase signal.
Measurement of VEGF cellular signaling was performed using the VEGF Bioassay (Promega). Briefly, HEK293 cells are engineered to express VEGFR-2 coupled to a luciferase response element (KDR/NFAT-RE HEK293). VEGF signaling through VEGFR-2 mediates expression of luciferase which can be quantified using bioluminescence. […] Following incubation Bio-Glo is added to wells according to the manufacturer's protocol and relative luminescence units (RLUs) were measured on a PerkinElmer 2300 Enspire Multimode plate reader. Data plotted are mean±standard deviation of triplicate measurements. IC50 values were derived from 3-parameter fits using Prism (GraphPad) and error reported are derived from fits.

VEGF-A = biological target: T2, VEGF-A (Homo sapiens, UniProt P15692); test: SPR binding of D-peptidic compounds to L-VEGF-A; parameters: Biotinylated VEGF-A(8-109) was immobilized on a biotin CAPture chip; details: for affinity improvement over 11055: SPR KD ratio versus parent 11055
T2 sequence (P15692 214-315): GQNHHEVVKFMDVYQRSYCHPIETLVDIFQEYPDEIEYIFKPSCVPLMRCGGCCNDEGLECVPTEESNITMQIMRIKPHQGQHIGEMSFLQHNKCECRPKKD
Method: Surface plasmon resonance (SPR) binding measurements were carried out on a Biacore S200 (GE). Biotinylated VEGF-A(8-109) was immobilized on a biotin CAPture chip (GE) and serial dilutions of D-proteins were flowed over the chip at 30 μL/min in running buffer (10 mM Hepes, pH 7.4, 150 mM NaCl, 0.05% P20). […] All measurements were carried out at 25° C. SPR data are representative of multiple independent titrations. Kinetic fits were performed using Biacore software using a global single site binding model.

[3] = biological target: T1, VEGF-A121 binding to VEGFR1-Fc; test: non-equilibrium VEGF-A blocking ELISA on VEGFR1-Fc; format: biochemical; details: for improvement of IC50 over 11055: non-equilibrium blocking ELISA
[4] = tested on: VEGF-A165-induced vascular leakage; test: rabbit eye model of wet AMD, fluorescein angiography; format: in vivo; details: single intravitreal dose 1.0 mg
Text: FIG. 44A-44B show in vivo activity of D-protein RFX-980869 in a rabbit eye model of wet AMD. (FIG. 44A) Representative fluorescein angiography (FA) images depicting the extent of VEGF-A165-induced vascular leakage at Day 5 and Day 26 post administration of respective drugs (control=no drug treatment). (FIG. 44B) Plots of individual FA scores at Day 5 and Day 26. Scoring is as follows: 0=major vessels straight with some tortuosity of small vessels and no dilation, 1=increased tortuosity of major vessels and some dilation, 2=leakage between major vessels and significant dilation, 3=leakage between major and minor vessels and minor vessels still visible, 4=leakage between major and minor vessels and minor vessels poorly visible or not visible. N=5 rabbits per group (10 eyes). All data is plotted as mean±SEM. (****p<0.0001, Mann-whitney test)
In the rabbit eye model for wet AMD, intravitreal challenge with exogenous VEGF-A165 induces vascular leakage of the retina that can be monitored using fluorescein angiography (FA). VEGF-A blockade can prevent the diffuse leakage of fluorescein into the eye, which serves as a measure of efficacy. […] After a single intravitreal administration of RFX-980869 at 0.25 mg or 1.0 mg per eye, rabbits were challenged with exogenous VEGF-A twice over a 1-month period (Day 2 and Day 23) and their eyes were examined three days later (Day 5 and Day 26). […]

D-VEGF-A = test: competitive phage ELISA, D-VEGF-A binding of L-peptidic compounds; details: D-VEGF-A binding activity
Method: Compounds of interest were assessed for VEGF-A binding in a competitive phage ELISA assay.

[5] = anti-drug antibodies in serum of the MC38 tumor study; format: in vivo, mouse; details: Day 22 serum, low and high dose groups
Text: FIG. 45A-45D show tumor growth inhibition activity of RFX-980869 and lack of immunogenicity. […] N=6 mice per group. (FIG. 45B) Day 15 tumor volumes (*p<0.05, Mann-whitney test) (FIG. 45C) Anti-drug-antibodies from MC38 tumor study measured in Day 22 serum samples using an ELISA for antigen-specific serum IgG. (FIG. 45D) Anti-drug-antibody titers measured from Day 42 serum after subcutaneous immunization of corresponding drugs in BALB/c mice. N=5 mice per group. All data is plotted as mean±SEM.

[6] = subcutaneous immunization in BALB/c mice; details: Day 42 serum; 25 μg s.c. Days 0, 21, 35, adjuvant on Day 0
Method: Female BALB/c mice (6-8 weeks) were randomized into immunization groups on Day 0 (n=5 per group) Immunizations were performed on Days 0, 21, 35 by subcutaneous injection of 25 μg of antigen. Antigens were emulsified in adjuvant (TiterMax) for injection on Day 0 and administered in PBS for Days 21 and 35. Serum pre-bleeds were performed on Days 0, 21, 35 prior to immunizations. Final bleeds for max titer response were taken on Day 42.

MC38 colon cancer tumors = test: MC38 syngeneic tumor model in C57BL6 mice; format: in vivo, mouse
Text: To assess the tumor growth inhibition potential of RFX-980869, the cross-reactivity of RFX-980869 with mouse VEGF-A (data not shown) was studied and used the syngeneic MC38 mouse tumor model. MC38 colon cancer tumors were established in C57BL6 mice transgenic for human PD-1, and reached 82 mm3 prior to initiation of treatment.
Female C57BL6 mice transgenic for human PD-1 (12-13 weeks) were purchased from Beijing Biocytogen Co.). […] MC38 tumor cells (1×10^6) were implanted subcutaneously in the right front flank and tumors were allowed to establish until the mean volume was 82 mm^3. Mice were randomized into treatment groups (N=6 per group) on Day 0 when treatment initiation began. […] All data is plotted as mean ±SEM.

Text for HUVEC cell proliferation: Here, HUVEC cell proliferation is increased in the presence of recombinant VEGF-A and antagonist compounds that block VEGF-A signaling reduce HUVEC cell proliferation.

Substance: [dY][dH][dI][dQ][dW][dV][dC][dK][dN][dA][dK][dE][dD][dA][dI][dA][dE][dL][dK][dK][dA]G[dI][dT][dE][dP][dH][dV][dI][dS][dF][dI][dN][dH][dA][dP][dN][dC][dS][dH][dV][dN]G[dL][dK][dN][dA][dI][dL][dK][dA][dH][dA]-NH2 (disulfide 7-38) [Compound 979110, yhiqwvcknakedaiaelkkaGitephvisfinhapncshvnGlknailkaha]
- IC50 [1]: 7 nM and 7.6 nM
- IC50 [2]: 6.1 nM
- affinity improvement over 11055 (VEGF-A): ~10 fold
- affinity improvement over 11055 (VEGF-A; listed as RFX-979110): 19 fold
- Kd (VEGF-A; VEGF-A binding affinity (KD) measured by SPR, running text and figure legends, L-VEGF-A): 3.6 nM and 2.3 nM
- IC50 [3]: 3.5 nM
- improvement of IC50 over 11055 [3]: 14.8 fold
- improvement of IC50 over 11055 ([3]; listed as RFX-979110): 15 fold
- fold weaker than bevacizumab (Avastin) (HUVEC cell proliferation; HUVEC proliferation): 185 fold
- potency improvement over 11055 (HUVEC cell proliferation; HUVEC proliferation): 4 fold
- IC50 (HUVEC cell proliferation; read-out: IC50 for inhibition of cell proliferation in response to VEGF signaling, HUVEC, recombinant VEGF-A): 131 nM

Substance: aflibercept
- vascular leakage at Day 26 [4]: completely blocked vascular leakage

Substance: tidqwllknakedaiaelkkcGitephvisfinhapyvshvnGlkanilkaha [Compound 1.1.1]
- IC50 (D-VEGF-A): 20 to 34 nM

Substance: nivolumab
- anti-drug-antibodies, antigen-specific serum IgG titer [5]: saturating levels of IgG titer
- anti-drug-antibody IgG titer after immunization [6]: strong IgG titers
- tumor growth versus vehicle control group (MC38 colon cancer tumors; 1 mg/kg biweekly, i.p.): failed to show tumor growth inhibition
- MC38 tumor growth curves (MC38 colon cancer tumors; FIG. 45A, over both dose levels): dose-dependent efficacy
- tumor growth inhibition (MC38 colon cancer tumors; day 15, 3 mg/kg biweekly): 48%
